# Measurements: patent publication EP0908457B1, “3-(1,2-benzisothiazol- and isoxazol-5-Y1)-2,4(1H,3H)-pyrimidinedione or thione and 3-(1,2-benzisothiazol- and isoxazol-5-y1)-4(3H)-pyrimidinone or thione herbicidal agents” (BASF AKTIENGESELLSCHAFT, priority 1997, dated 1999)
# Assays:
# [1] = system: Echinochloa oryzoides (Ard.) Fritsch.; assay: Preemergence weed control under flooded paddy conditions, ECHORC (Watergrass (Calif.)); type: in vivo; conditions: flooded paddy; on herbicidal effect rating, ECHORC: meaning of each grade not given here
# [2] = system: Oryza sativa, (L.) Tebonnet; assay: Rice tolerance to post-transplant applications under flooded paddy conditions (Example 187), ORYSAT (Rice, Tebonnet); on herbicidal effect rating ORYSAT: meaning of each grade not given here
# Cyperus iria = assay: Preemergence weed control under flooded paddy conditions, CYPIR (Rice Flatsedge); type: in vivo; conditions: flooded paddy; on herbicidal effect rating, CYPIR: meaning of each grade not given here
# [3] = system: Cyperus serotinus, Rottb.; assay: Preemergence weed control under flooded paddy conditions, CYPSE (Flatsedge); type: in vivo; on herbicidal effect rating, CYPSE: meaning of each grade not given here
# Sagittaria pygmaea, L. = assay: Preemergence weed control under flooded paddy conditions, SAGPY (Arrowhead (Pygmaea)); type: in vivo; conditions: flooded paddy; on herbicidal effect rating, SAGPY: meaning of each grade not given here
# [4] = system: Monochoria vaginalis, Presl.; assay: Preemergence weed control under flooded paddy conditions, MOOVA (Monochoria); type: in vivo; conditions: flooded paddy; on herbicidal effect rating, MOOVA: meaning of each grade not given here
# [5] = 0.0313 kg/ha, preemergence, rated three to four weeks after treatment
# [6] = 0.0625 kg/ha, preemergence, rated three to four weeks after treatment
# [7] = 0.1250 kg/ha, preemergence, rated three to four weeks after treatment
# [8] = 0.2500 kg/ha, preemergence, rated three to four weeks after treatment
# [9] = 0.0313 kg/ha, rated three to four weeks after treatment
# [10] = 0.0625 kg/ha, rated three to four weeks after treatment
# [11] = 0.1250 kg/ha, rated three to four weeks after treatment
# [12] = 0.2500 kg/ha, rated three to four weeks after treatment
# [13] = Rate 0.0320 kg/ha, preemergence weeds, rated three to four weeks after treatment
# [14] = Rate 0.0620 kg/ha, preemergence weeds, rated three to four weeks after treatment
# [15] = Rate 0.1250 kg/ha, preemergence weeds, rated three to four weeks after treatment
# [16] = Rate 0.2500 kg/ha, preemergence weeds, rated three to four weeks after treatment
# [17] = Rate 0.0320 kg/ha, rated three to four weeks after treatment
# [18] = Rate 0.0620 kg/ha, rated three to four weeks after treatment
# [19] = Rate 0.1250 kg/ha, rated three to four weeks after treatment
# [20] = Rate 0.2500 kg/ha, rated three to four weeks after treatment
# [21] = Rate 0.0320 kg/ha, preemergence, rated three to four weeks after treatment
# [22] = Rate 0.0620 kg/ha, preemergence, rated three to four weeks after treatment
# [23] = Rate 0.1250 kg/ha, preemergence, rated three to four weeks after treatment
# [24] = Rate 0.2500 kg/ha, preemergence, rated three to four weeks after treatment
# [25] = Rate 0.0320 kg/ha, preemergence, rated 3-4 weeks after treatment
# [26] = Rate 0.0620 kg/ha, preemergence, rated 3-4 weeks after treatment
# [27] = Rate 0.1250 kg/ha, preemergence, rated 3-4 weeks after treatment
# [28] = Rate 0.2500 kg/ha, preemergence, rated 3-4 weeks after treatment
# [29] = Rate 0.5000 kg/ha, preemergence, rated 3-4 weeks after treatment
compound,measurement,setting,value
"COC(=O)C(C)Oc1ccccc1Oc1noc2ccc(-n3c(=O)cc(C(F)(F)F)n(C)c3=O)cc12 (stereo not drawn) [Example 47, Methyl 2-{o-{{5-[3,6-dihydro-3-methyl-2,6-dioxo-4-(trifluoromethyl)-1(2H)-pyrimidinyl]-1,2-benzisoxazol-3-yl}oxy}phenoxy}propionate]","herbicidal effect rating, ECHORC",[1]; [5],0.0
same,"herbicidal effect rating, ECHORC",[1]; [6],1.5
same,"herbicidal effect rating, ECHORC",[1]; [7],3.5
same,"herbicidal effect rating, ECHORC",[1]; [8],5.0
same,"herbicidal effect rating, ORYSAT (rice tolerance)",[2]; [9],1.5
same,"herbicidal effect rating, ORYSAT (rice tolerance)",[2]; [10],2.5
same,"herbicidal effect rating, ORYSAT (rice tolerance)",[2]; [11],4.0
same,"herbicidal effect rating, ORYSAT (rice tolerance)",[2]; [12],6.0
same,"herbicidal effect rating, CYPIR",Cyperus iria; [5],0.0
same,"herbicidal effect rating, CYPIR",Cyperus iria; [6],0.0
same,"herbicidal effect rating, CYPIR",Cyperus iria; [7],0.0
same,"herbicidal effect rating, CYPIR",Cyperus iria; [8],1.0
same,"herbicidal effect rating, CYPSE",[3]; [5],0.0
same,"herbicidal effect rating, CYPSE",[3]; [6],0.0
same,"herbicidal effect rating, CYPSE",[3]; [7],1.0
same,"herbicidal effect rating, CYPSE",[3]; [8],2.0
same,"herbicidal effect rating, SAGPY","Sagittaria pygmaea, L.; [5]",0.0
same,"herbicidal effect rating, SAGPY","Sagittaria pygmaea, L.; [6]",0.0
same,"herbicidal effect rating, SAGPY","Sagittaria pygmaea, L.; [7]",0.0
same,"herbicidal effect rating, SAGPY","Sagittaria pygmaea, L.; [8]",0.0
same,"herbicidal effect rating, MOOVA",[4]; [5],4.5
same,"herbicidal effect rating, MOOVA",[4]; [6],4.5
same,"herbicidal effect rating, MOOVA",[4]; [7],5.5
same,"herbicidal effect rating, MOOVA",[4]; [8],9.0
"Cn1c(C(F)(F)F)cc(=O)n(-c2ccc3snc(C(N)=O)c3c2)c1=O [Example 322, 1,2-Benzisothiazole-3-carboxamide, 5-[3,6-dihydro-3-methyl-2,6-dioxo-4-(trifluoromethyl)-1(2H)-pyrimidinyl]-]","herbicidal effect rating, ECHORC",[1]; [13],9.0
same,"herbicidal effect rating, ECHORC",[1]; [14],9.0
same,"herbicidal effect rating, ECHORC",[1]; [15],9.0
same,"herbicidal effect rating, ECHORC",[1]; [16],9.0
same,herbicidal effect rating ORYSAT,[2]; [17],5.0
same,herbicidal effect rating ORYSAT,[2]; [18],5.0
same,herbicidal effect rating ORYSAT,[2]; [19],5.0
same,herbicidal effect rating ORYSAT,[2]; [20],7.0
same,"herbicidal effect rating, CYPIR",Cyperus iria; [13],4.0
same,"herbicidal effect rating, CYPIR",Cyperus iria; [14],6.0
same,"herbicidal effect rating, CYPIR",Cyperus iria; [15],7.0
same,"herbicidal effect rating, CYPIR",Cyperus iria; [16],9.0
same,"herbicidal effect rating, CYPSE",[3]; [13],5.0
same,"herbicidal effect rating, CYPSE",[3]; [14],5.0
same,"herbicidal effect rating, CYPSE",[3]; [15],6.0
same,"herbicidal effect rating, CYPSE",[3]; [16],9.0
same,"herbicidal effect rating, SAGPY","Sagittaria pygmaea, L.; [13]",3.0
same,"herbicidal effect rating, SAGPY","Sagittaria pygmaea, L.; [14]",3.0
same,"herbicidal effect rating, SAGPY","Sagittaria pygmaea, L.; [15]",3.0
same,"herbicidal effect rating, SAGPY","Sagittaria pygmaea, L.; [16]",9.0
same,"herbicidal effect rating, MOOVA",[4]; [13],5.0
same,"herbicidal effect rating, MOOVA",[4]; [14],9.0
same,"herbicidal effect rating, MOOVA",[4]; [15],9.0
same,"herbicidal effect rating, MOOVA",[4]; [16],9.0
"Cn1c(C(F)(F)F)cc(=O)n(-c2ccc3snc(C=C(Br)Br)c3c2)c1=O [Example 284, 2,4(1H,3H)-Pyrimidinedione, 3-[3-(2,2-dibromovinyl)-1,2-benzisothiazol-5-yl]-1-methyl-6-(trifluoromethyl)-]",ECHORC herbicidal effect rating,[1]; [21],0.0
same,ECHORC herbicidal effect rating,[1]; [22],0.0
same,ECHORC herbicidal effect rating,[1]; [23],0.0
same,ECHORC herbicidal effect rating,[1]; [24],0.0
same,ORYSAT herbicidal effect rating,[2]; [17],0.0
same,ORYSAT herbicidal effect rating,[2]; [18],0.0
same,ORYSAT herbicidal effect rating,[2]; [19],0.0
same,ORYSAT herbicidal effect rating,[2]; [20],0.0
same,CYPIR herbicidal effect rating,Cyperus iria; [21],4.0
same,CYPIR herbicidal effect rating,Cyperus iria; [22],9.0
same,CYPIR herbicidal effect rating,Cyperus iria; [23],9.0
same,CYPIR herbicidal effect rating,Cyperus iria; [24],9.0
same,CYPSE herbicidal effect rating,[3]; [21],0.0
same,CYPSE herbicidal effect rating,[3]; [22],0.0
same,CYPSE herbicidal effect rating,[3]; [23],2.0
same,CYPSE herbicidal effect rating,[3]; [24],9.0
same,SAGPY herbicidal effect rating,"Sagittaria pygmaea, L.; [21]",0.0
same,SAGPY herbicidal effect rating,"Sagittaria pygmaea, L.; [22]",0.0
same,SAGPY herbicidal effect rating,"Sagittaria pygmaea, L.; [23]",0.0
same,SAGPY herbicidal effect rating,"Sagittaria pygmaea, L.; [24]",0.0
same,MOOVA herbicidal effect rating,[4]; [21],4.0
same,MOOVA herbicidal effect rating,[4]; [22],9.0
same,MOOVA herbicidal effect rating,[4]; [23],9.0
same,MOOVA herbicidal effect rating,[4]; [24],9.0
"CC(C)S(=O)(=O)NC(=O)COc1ccccc1-c1nsc2ccc(-n3c(=O)cc(C(F)(F)F)n(C)c3=O)cc12 [Example 555, Acetamide, 2-{o-{5-[3,6-dihydro-3-methyl-2,6-dioxo-4-(trifluoromethyl)-1(2H)-pyrimidinyl)-1,2-benzisothiazol-3-yl}phenoxy}-N-(isopropylsulfonyl)-]","herbicidal effect rating, ECHORC",[1]; [25],1.6
same,"herbicidal effect rating, ECHORC",[1]; [26],2.3
same,"herbicidal effect rating, ECHORC",[1]; [27],4.6
same,"herbicidal effect rating, ECHORC",[1]; [28],9.0
same,"herbicidal effect rating, ECHORC",[1]; [29],9.0
same,herbicidal effect rating ORYSAT,"[2]; Rate 0.0320 kg/ha, rated 3-4 weeks after treatment",6.0
same,herbicidal effect rating ORYSAT,"[2]; Rate 0.0620 kg/ha, rated 3-4 weeks after treatment",6.0
same,herbicidal effect rating ORYSAT,"[2]; Rate 0.1250 kg/ha, rated 3-4 weeks after treatment",8.0
same,herbicidal effect rating ORYSAT,"[2]; Rate 0.2500 kg/ha, rated 3-4 weeks after treatment",9.0
same,herbicidal effect rating ORYSAT,"[2]; Rate 0.5000 kg/ha, rated 3-4 weeks after treatment",3.0
same,"herbicidal effect rating, CYPIR",Cyperus iria; [25],4.0
same,"herbicidal effect rating, CYPIR",Cyperus iria; [26],6.0
same,"herbicidal effect rating, CYPIR",Cyperus iria; [27],9.0
same,"herbicidal effect rating, CYPIR",Cyperus iria; [28],9.0
same,"herbicidal effect rating, CYPIR",Cyperus iria; [29],3.0
same,"herbicidal effect rating, CYPSE",[3]; [25],4.0
same,"herbicidal effect rating, CYPSE",[3]; [26],6.0
same,"herbicidal effect rating, CYPSE",[3]; [27],8.0
same,"herbicidal effect rating, CYPSE",[3]; [28],8.0
same,"herbicidal effect rating, CYPSE",[3]; [29],9.0
same,"herbicidal effect rating, SAGPY","Sagittaria pygmaea, L.; [25]",0.0
same,"herbicidal effect rating, SAGPY","Sagittaria pygmaea, L.; [26]",0.0
same,"herbicidal effect rating, SAGPY","Sagittaria pygmaea, L.; [27]",2.0
same,"herbicidal effect rating, SAGPY","Sagittaria pygmaea, L.; [28]",7.0
same,"herbicidal effect rating, SAGPY","Sagittaria pygmaea, L.; [29]",0.0
same,"herbicidal effect rating, MOOVA",[4]; [25],9.0
same,"herbicidal effect rating, MOOVA",[4]; [26],9.0
same,"herbicidal effect rating, MOOVA",[4]; [27],9.0
same,"herbicidal effect rating, MOOVA",[4]; [28],9.0
same,"herbicidal effect rating, MOOVA",[4]; [29],9.0
"COCc1nsc2ccc(-n3c(=O)cc(C(F)(F)F)n(C)c3=O)cc12 [Example 31, 3-[3-(Methoxymethyl)-1,2-benzisothiazol-5-yl]-1-methyl-6-(trifluoromethyl)-2,4(1H,3H)-pyrimidinedione]","herbicidal effect rating, ECHORC",[1]; [5],7.0
same,"herbicidal effect rating, ECHORC",[1]; [6],8.5
same,"herbicidal effect rating, ECHORC",[1]; [7],9.0
same,"herbicidal effect rating, ECHORC",[1]; [8],9.0
same,"herbicidal effect rating, ORYSAT (rice tolerance)",[2]; [9],7.5
same,"herbicidal effect rating, ORYSAT (rice tolerance)",[2]; [10],8.0
same,"herbicidal effect rating, ORYSAT (rice tolerance)",[2]; [11],7.5
same,"herbicidal effect rating, ORYSAT (rice tolerance)",[2]; [12],8.0
same,"herbicidal effect rating, CYPIR",Cyperus iria; [5],9.0
same,"herbicidal effect rating, CYPIR",Cyperus iria; [6],9.0
same,"herbicidal effect rating, CYPIR",Cyperus iria; [7],9.0
same,"herbicidal effect rating, CYPIR",Cyperus iria; [8],9.0
same,"herbicidal effect rating, CYPSE",[3]; [5],7.0
same,"herbicidal effect rating, CYPSE",[3]; [6],7.0
same,"herbicidal effect rating, CYPSE",[3]; [7],8.0
same,"herbicidal effect rating, CYPSE",[3]; [8],9.0
same,"herbicidal effect rating, SAGPY","Sagittaria pygmaea, L.; [5]",4.0
same,"herbicidal effect rating, SAGPY","Sagittaria pygmaea, L.; [6]",7.0
same,"herbicidal effect rating, SAGPY","Sagittaria pygmaea, L.; [7]",9.0
same,"herbicidal effect rating, SAGPY","Sagittaria pygmaea, L.; [8]",9.0
same,"herbicidal effect rating, MOOVA",[4]; [5],9.0
same,"herbicidal effect rating, MOOVA",[4]; [6],9.0
same,"herbicidal effect rating, MOOVA",[4]; [7],9.0
same,"herbicidal effect rating, MOOVA",[4]; [8],9.0
"Cn1c(C(F)(F)F)cc(=O)n(-c2ccc3onc(-c4ccccc4)c3c2)c1=O [Example 25, 1-Methyl-3-(3-phenyl-1,2-benzisoxazol-5-yl)-6-(trifluoromethyl)-2,4(1H,3H)-pyrimidinedione]","herbicidal effect rating, ECHORC",[1]; [5],7.0
same,"herbicidal effect rating, ECHORC",[1]; [6],9.0
same,"herbicidal effect rating, ECHORC",[1]; [7],9.0
same,"herbicidal effect rating, ECHORC",[1]; [8],9.0
same,"herbicidal effect rating, ORYSAT (rice tolerance)",[2]; [9],4.0
same,"herbicidal effect rating, ORYSAT (rice tolerance)",[2]; [10],6.0
same,"herbicidal effect rating, ORYSAT (rice tolerance)",[2]; [11],7.0
same,"herbicidal effect rating, ORYSAT (rice tolerance)",[2]; [12],7.0
same,"herbicidal effect rating, CYPIR",Cyperus iria; [5],9.0
same,"herbicidal effect rating, CYPIR",Cyperus iria; [6],9.0
same,"herbicidal effect rating, CYPIR",Cyperus iria; [7],9.0
same,"herbicidal effect rating, CYPIR",Cyperus iria; [8],9.0
same,"herbicidal effect rating, CYPSE",[3]; [5],0.0
same,"herbicidal effect rating, CYPSE",[3]; [6],2.0
same,"herbicidal effect rating, CYPSE",[3]; [7],7.0
same,"herbicidal effect rating, CYPSE",[3]; [8],8.0
same,"herbicidal effect rating, SAGPY","Sagittaria pygmaea, L.; [5]",0.0
same,"herbicidal effect rating, SAGPY","Sagittaria pygmaea, L.; [6]",0.0
same,"herbicidal effect rating, SAGPY","Sagittaria pygmaea, L.; [7]",1.0
same,"herbicidal effect rating, SAGPY","Sagittaria pygmaea, L.; [8]",4.0
same,"herbicidal effect rating, MOOVA",[4]; [5],9.0
same,"herbicidal effect rating, MOOVA",[4]; [6],9.0
same,"herbicidal effect rating, MOOVA",[4]; [7],9.0
same,"herbicidal effect rating, MOOVA",[4]; [8],9.0
